Measured values reported in patent EP0497091A1, “Bridged cyclic ketal derivatives” (GLAXO GROUP LIMITED, priority 1991, dated 1992).
Values after ≈ are worked out from the molar mass of the structure shown. Where a name gives a salt, the structure may show the parent alone. Read-outs that look alike come from different tables or passages of the source.

Legend:
[1] = tested on: clinically relevant pathogens; test: In vitro antifungal activity, agar plate MIC determination; assay type: cell-based; conditions: Candida albicans
Procedure: The in vitro evaluation of the anti-fungal activity of compounds of the invention can be performed by determining the minimum inhibitory concentration (MIC) which is the concentration of the test compound in a suitable medium at which growth of a particular microorganism fails to occur.
[¹⁴C] Squalene was separated from unreacted substrate on thin layer chromatography plates and determined by liquid scintillation counting. Inhibition of squalene synthase was quantified by incubating rat liver homogenate with various concentrations of the test compound in the presence of [2-¹⁴C] farnesylpyrophosphate. The concentration of compound giving 50% inhibition of [¹⁴C] squalene production in a 30 minute assay was taken as the IC₅₀ value. […] In practice, a series of agar plates, each having the test compound incorporated at a particular concentration, was inoculated with a standard culture of a clinically relevant pathogen, for example Candida albicans, and each plate was then incubated at 37 °C for 24 to 48 hours depending on the pathogen.

[2] = target: T1, squalene synthase (Rattus norvegicus, UniProt Q02769); test: Inhibition of squalene synthase ([14C]squalene production from [2-14C]farnesylpyrophosphate); assay type: biochemical
T1 construct: from tissue; host or cells: rat liver homogenate
T1 sequence (Q02769 1-416): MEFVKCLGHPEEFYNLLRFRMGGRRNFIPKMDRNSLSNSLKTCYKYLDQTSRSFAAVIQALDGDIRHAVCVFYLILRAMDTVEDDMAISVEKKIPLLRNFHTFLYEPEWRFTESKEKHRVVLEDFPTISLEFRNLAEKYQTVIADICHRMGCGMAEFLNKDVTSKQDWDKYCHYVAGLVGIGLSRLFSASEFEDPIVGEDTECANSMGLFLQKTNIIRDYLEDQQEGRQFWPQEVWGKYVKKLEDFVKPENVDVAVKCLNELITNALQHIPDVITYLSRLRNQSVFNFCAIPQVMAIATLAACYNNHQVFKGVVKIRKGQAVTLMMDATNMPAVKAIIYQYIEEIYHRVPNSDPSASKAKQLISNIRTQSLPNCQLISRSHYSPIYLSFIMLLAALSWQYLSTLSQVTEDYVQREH
Text: A. Biller et al. in J. […] [¹⁴C]squalene is separated from unreacted substrate on thin layer chromatography plates and determined by liquid scintillation counting. […] Acta, Volume 877, 50-60 (1986) and modified to include measurement of cholesterol by high performance liquid chromatography (h.p.l.c.). […] A. […] [¹⁴C] Squalene was separated from unreacted substrate on thin layer chromatography plates and determined by liquid scintillation counting. Inhibition of squalene synthase was quantified by incubating rat liver homogenate with various concentrations of the test compound in the presence of [2-¹⁴C] farnesylpyrophosphate. The concentration of compound giving 50% inhibition of [¹⁴C] squalene production in a 30 minute assay was taken as the IC₅₀ value.

[3] = rat liver homogenate, [2-¹⁴C] farnesylpyrophosphate as substrate, 50% inhibition of [¹⁴C] squalene production in a 30 minute assay, read-out: IC₅₀

Structure (SMILES) | MIC [1] [µg/mL] | IC50 [2] [nM] | IC50 [2, 3] [nM]
C=C(CC[C@]12O[C@H](C(=O)O)[C@@](O)(C(=O)O)[C@](C(=O)O)(O1)[C@H](OC(=O)CCCCCCCCC)[C@H]2O)[C@@H](OC(C)=O)[C@H](C)Cc1ccccc1 (relative stereo) [6-decanoate in Example 30, [1S-[1α(4R*,5S*),3α,4β,5α,6α,7β]] 1-(4-acetyloxy-5-methyl-3-methylene-6-phenylhexyl)-4,6,7-trihydroxy-2,8-dioxabicyclo[3.2.1]octane-3,4,5-tricarboxylic acid, 6-decanoate] | 0.1 to 31 (≈ 0.144 to 44.7 µM) | < 100 | 
C=C(CC[C@]12O[C@H](C(=O)O)[C@@](O)(C(=O)O)[C@](C(=O)O)(O1)[C@H](OC(=O)/C=C/[C@@H](C)C[C@@H](C)CC)[C@H]2O)[C@H](O)[C@H](C)Cc1ccccc1 (relative stereo) [Example 1, [1S-[1α(4S*,5S*),3α,4β,5α,6α(2E,4R*,6R*),7β]] 1-(4-Hydroxy-5-methyl-3-methylene-6-phenylhexyl)-4,6,7-trihydroxy-2,8-dioxabicyclo[3.2.1]octane-3,4,5-tricarboxylic acid, 6-(4,6-dimethyl-2-octenoate)] | 0.1 to 31 (≈ 0.154 to 47.8 µM) | < 100 | 
CC[C@H](C)C[C@H](C)CCC(=O)O[C@@H]1[C@@H](O)[C@@]2(C/C=C(\C)[C@@H](OC(C)=O)[C@H](C)Cc3ccccc3)O[C@H](C(=O)O)[C@@](O)(C(=O)O)[C@]1(C(=O)O)O2 (relative stereo) [Example 11, [1S-[1α[(E),4R*,5S*],3α,4β,5α,6α(4S*,6R*),7β]] 1-(4-Acetyloxy-3,5-dimethyl-6-phenyl-2-hexenyl)-4,6,7-trihydroxy-2,8-dioxabicyclo[3.2.1]octane-3,4,5-tricarboxylic acid, 6-(4,6-dimethyloctanoate)] | 0.1 to 31 (≈ 0.144 to 44.7 µM) | < 100 | 
CC[C@H](C)C[C@H](C)CCC(=O)O[C@@H]1[C@@H](O)[C@@]2(CCC(C)[C@@H](O)[C@H](C)Cc3ccccc3)O[C@H](C(=O)O)[C@@](O)(C(=O)O)[C@]1(C(=O)O)O2 (relative stereo) [Example 13, [1S-[1α(3R*S*,4S*,5S*),3α,4β,5α,6α(4S*,6R*),7β]] 1-(3,5-Dimethyl-4-hydroxy-6-phenylhexyl)-4,6,7-trihydroxy-2,8-dioxabicyclo[3.2.1]octane-3,4,5-tricarboxylic acid, 6-(4,6-dimethyloctanoate)] | 0.1 to 31 (≈ 0.153 to 47.5 µM) |  | 
CCC(C)CC(C)/C=C/C(=O)OC1C(O)C2(CCC(C)C(O)C(C)Cc3ccccc3)OC(C(=O)O)C(O)(C(=O)O)C1(C(=O)O)O2 (single isomer, unassigned) [Example 8, [1S-[1α[3R*(S*),4R*(S*),5S*],3α,4β,5α,6α(2E,4R*,6R*),7β]] 1-(4-Hydroxy-3,5-dimethyl-6-phenylhexyl)-4,6,7-trihydroxy-2,8-dioxabicyclo[3.2.1]octane-3,4,5-tricarboxylic acid, 6-(4,6-dimethyl-2-octenoate), isomer 3 and isomer 4] |  |  | < 100
CCC(C)CC(C)CCC(=O)OC1C(O)C2(CCC(C)C(=O)C(C)Cc3ccccc3)OC(C(=O)O)C(O)(C(=O)O)C1(C(=O)O)O2 (single isomer, unassigned; isomer 1) [isomer 1 in Example 16, [1S-[1α(3R*(S*),5S*),3α,4β,5α,6α(4S*,6R*),7β]] 1-(3,5-Dimethyl-4-oxo-6-phenylhexyl)-4,6,7-trihydroxy-2,8-dioxabicyclo[3.2.1]octane-3,4,5-tricarboxylic acid, 6-(4,6-dimethyloctanoate), 3,4,5-tripotassium salt] |  |  | < 100
C=C(CCC12OC(C(=O)O)C(O)(C(=O)O)C(C(=O)O)(O1)C(OC(C)=O)C2O)C(OC(C)=O)C(C)Cc1ccccc1 (stereo not drawn) [Compound 1 in Example 28, [1S-[1α(4R*,5S*),3α,4β,5α,6α,7β]] 1-(4-Acetyloxy-5-methyl-3-methylene-6-phenylhexyl)-4,6,7-trihydroxy-2,8-dioxabicyclo[3.2.1]octane-3,4,5-tricarboxylic acid, 6-acetate] |  | < 100 | 
COC(=O)OC1C(O)C2(CCC(C)C(OC(C)=O)C(C)Cc3ccccc3)OC(C(=O)O)C(O)(C(=O)O)C1(C(=O)O)O2 (stereo not drawn) [Compound (I) in Example 65, [1S-[1α(3R*S*,4S*,5S*),3α,4β,5α,6α,7β]] 1-(4-Acetyloxy-3,5-dimethyl-6-phenylhexyl)-4,7-dihydroxy-6-[[(methoxycarbonyl]oxy]-2,8-dioxabicyclo[3.2.1]octane-3,4,5-tricarboxylic acid] |  |  | < 100
C=C(CC[C@]12O[C@H](C(=O)O)[C@@](O)(C(=O)O)[C@](C(=O)O)(O1)[C@H](OC(=O)/C=C/[C@@H](C)C[C@@H](C)CC)[C@H]2O)C(=O)[C@H](C)Cc1ccccc1 [Example 3, [1S-[1α(5S^*),3α,4β,5α,6α(2E,4R^*,6R^*),7β]] 1-(5-Methyl-3-methylene-4-oxo-6-phenylhexyl)-4,6,7-trihydroxy-2,8-dioxabicyclo[3.2.1]octane-3,4,5-tricarboxylic acid, 6-(4,6-dimethyl-2-octenoate)] |  | < 100 | 
CCC(C)CC(C)CCC(=O)OC1C(O)C2(CCC(=O)C(O)C(C)Cc3ccccc3)OC(C(=O)O)C(O)(C(=O)O)C1(C(=O)O)O2 (stereo not drawn) [Example 17, [1S-[1α(4R*,5S*),3α,4β,5α,6α(4S*,6R*),7β]] 1-(4-Hydroxy-5-methyl-3-oxo-6-phenylhexyl)-4,6,7-trihydroxy-2,8-dioxobicyclo[3.2.1]octane-3,4,5-tricarboxylic acid, 6-(4,6-dimethyloctanoate)] |  | < 100 | 
CCC(C)CC(C)CCC(=O)OC1C(O)C2(CCCC(=O)CCc3ccccc3)OC(C(=O)O)C(O)(C(=O)O)C1(C(=O)O)O2 (stereo not drawn) [Example 19, [1S-[1α,3α,4β,5α,6α(4S*,6R*),7β]] 1-(4-Oxo-6-phenylhexyl)-4,6,7-trihydroxy-2,8-dioxabicyclo[3.2.1]octane-3,4,5-tricarboxylic acid, 6-(4,6-dimethyloctanoate)] |  | < 100 | 
CCC(C)CC(C)CCC(=O)OC1C(O)C2(CCCC(=O)C(C)Cc3ccccc3)OC(C(=O)O)C(O)(C(=O)O)C1(C(=O)O)O2 (stereo not drawn) [Example 20, [1S-[1α(5R*S*),3α,4β,5α,6α(4S*,6R*),7β]] 1-(5-Methyl-4-oxo-6-phenylhexyl)-4,6,7-trihydroxy-2,8-dioxabicyclo[3.2.1]octane-3,4,5-tricarboxylic acid, 6-(4,6-dimethyloctanoate)] |  | < 100 | 
CCC(C)CC(C)CCC(=O)OC1C(O)C2(CCC(C)C(=O)CCc3ccccc3)OC(C(=O)O)C(O)(C(=O)O)C1(C(=O)O)O2 (stereo not drawn) [Example 21, [1S-[1α[3R*(S*)],3α,4β,5α,6α(4S*,6R*),7β]] 1-(3-Methyl-4-oxo-6-phenylhexyl)-4,6,7-trihydroxy-2,8-dioxabicyclo[3.2.1]octane-3,4,5-tricarboxylic acid, 6-(4,6-dimethyloctanoate)] |  | < 100 | 
C=C(CCC12OC(C(=O)O)C(OC(C)=O)(C(=O)O)C(C(=O)O)(O1)C(OC(=O)C=CC(C)CC(C)CC)C2OC(C)=O)C(OC(C)=O)C(C)Cc1ccccc1 (stereo not drawn) [Example 25, [1S-[1α(4R*,5S*),3α,4β,5α,6α(2E,4R*,6R*),7β]] 1-(4-Acetyloxy-5-methyl-3-methylene-6-phenylhexyl)-4,7-diacetyloxy-6-hydroxy-2,8-dioxabicyclo[3.2.1]octane-3,4,5-tricarboxylic acid, 6-(4,6-dimethyl-2-octenoate)] |  | < 100 | 
C=C(CCC12OC(C(=O)O)C(O)(C(=O)O)C(C(=O)O)(O1)C(OC(=O)C=CC(C)CC(C)CC)C2OC(=O)OC)C(OC(C)=O)C(C)Cc1ccccc1 (stereo not drawn) [Example 26, [1S-[1α(4R*,5S*),3α,4β,5α,6α(2E,4R*,6R*),7β]] 1-(4-Acetyloxy-5-methyl-3-methylene-6-phenylhexyl)-4,6-dihydroxy-7-[(methoxycarbonyl)oxy]-2,8-dioxabicyclo[3.2.1]octane-3,4,5-tricarboxylic acid, 6-(4,6-dimethyl-2-octenoate)] |  | < 100 | 
C=C(CCC12OC(C(=O)O)C(O)(C(=O)O)C(C(=O)O)(O1)C(OC(=O)CCCCC(C)=O)C2O)C(OC(C)=O)C(C)Cc1ccccc1 (stereo not drawn) [Example 53, [1S-[1α(4R*,5S*),3α,4β,5α,6α,7β]] 1-(4-Acetyloxy-5-methyl-3-methylene-6-phenylhexyl)-4,6,7-trihydroxy-2,8-dioxabicyclo[3.2.1]octane-3,4,5-tricarboxylic acid, 6-(6-oxo-heptanoate)] |  |  | < 100
